Reference: patent US20240051952A1, “HMOX1 INDUCERS” (Mitobridge Inc., priority 2019, published 2024)
In brackets after ≈: the same amount, converted by molar mass. Counter-ions that a name gives are not always drawn.

What was measured:
[1] = system: Human Heme Oxygenase-1 (HMOX-1); assay: ELISA assay to measure human heme oxygenase-1 (HMOX-1) in HepG2 lysate; type: cell-based; conditions: for Maximum Fold induction: fold change of human HMOX1 protein levels relative to DMSO control, HepG2; for EC50: human HMOX1 protein in HepG2 lysate, ELISA, * = average of 2 or more EC50 determinations, NA = Not Active
Method in brief: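 HepG2 cells lysed in PBS/0.5% Triton X-100/1 mM EDTA with protease inhibitors; lysate diluted 1:20. Sandwich ELISA: anti-HO-1 capture (8 μg/ml), biotinylated detection antibody (200 ng/ml), streptavidin-HRP, chemiluminescent read. Quantified against 12-point HO-1 standard curve from 20 ng/ml; incubations at 20 °C.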

Kinetic solubility = type: physicochemical; conditions: Dulbecco's phosphate buffered saline (DPBS), aqueous buffer, kinetic from dmso stock, DPBS pH 7.4, 25° C., 200 μM test compound
Description: 10 μL of 10 mM DMSO stock solution were aliquotted to 490 μL of DMSO solution and separately 490 μL of Dulbecco's phosphate buffer saline, DPBS, pH 7.4 solution in 1.2 mL 96-well plates in duplicate. Final concentration was 200 μM of the test compound. Samples were incubated at 25° C. with shaking at 200 rpm for 16 h. Samples were centrifuged at 3500 rpm for 20 min at 25° C., and supernatant was submitted for HPLC analysis.
Kinetic solubility was measured using the following equation: […]

Heme Oxygenase 1 (HO1) = assay: PD study, HMOX1 protein levels in mouse plasma and liver (ELISA); type: in vivo; conditions: HMOX1 protein fold induction vs time-matched vehicle, 50 mpk oral; for Liver Protein (3 h) / Liver Protein (6 h): mouse liver; for Plasma Protein (3 h) / Plasma Protein (6 h): mouse plasma
Description: 9-10 week old male C57BL/6 mice were dosed orally with 50 mg/kg of vehicle or compound formulated in 5% w/v tween 80 and 0.5% methyl cellulose. At indicated time points (3 and 6 hours or or 4 and 8 hours post-dosing as shown in the results below), whole blood was collected, animal was sacrificed and liver was collected. Blood samples were transferred to vials containing 4 μL of 10% w/v EDTA, centrifuged at 6000 rpm for 8 in below 10° C. to obtain plasma. Samples were frozen and later processed for HMOX1 protein levels as indicated below:
HMOX 1 Protein Levels: Mouse Liver
Preparation of Homogenization/Lysis Buffer
The homogenization buffer was prepared according Table A.
Immediately prior to use, add DTT (ThermoScientific #R0861) to a final concentration of 5 mM and 100×Halt Protease & Phosphatase Inhibitor Cocktail (ThermoScientific #78440) to a final concentration of 1×.
Preparation of Mouse Liver Samples
Liver samples were crushed by mortar and pestle under freezing conditions. Pulverized tissue was transferred into pre-chilled bead ruptor OMNI tubes (OMNI International, Cat #19-628). 1 mL of homogenization buffer (+DTT and HALT) was added to pulverized tissue and tubes were placed on ice. Samples were loaded and run through bead ruptor at speed 5.64 m/s, for two 20 sec cycles with 10 sec dwell between cycles and samples were immediately returned to ice. All material was transferred to a new chilled 2 mL Eppendorf tube. Samples were centrifuged for 5 minutes at 2,000 rpm at 4° C. Supernatant was transferred to a fresh chilled 1.7 mL Eppendorf tube. Samples were centrifuged for 5 minutes at 2,000 rpm at 4° C. The supernatant, consisting of cytosol and microsomes, was transferred to a fresh chilled 1.7 mL Eppendorf tube. Samples were stored at −80° C. Microsome samples were quantitated using Pierce 660 Assay (ThermoFisher Cat #22660) with pre-diluted BSA standards (ThermoFisher Cat #23208) ranging from 125-2000 μg/mL. Each sample was diluted to 10ng/ul for an ELISA input of 0.5ug in 50ul.
Preparation of Assay Reagents
All assay reagents were provided in the Heme Oxygenase 1 (HO1) Mouse SimpleStep ELISA Kit (Abcam #ab204524). Prior to use, all reagents were equilibrated to room temperature. 1×Wash Buffer PT was prepared by diluting 10×Wash Buffer PT 1:10 with deionized water. Antibody cocktail was prepared by diluting the 10×Capture Antibody and 10×Detector Antibody to 1×in Antibody Diluent 5BI. Mouse heme oxygenase 1 protein standard was reconstituted using 500ul homogenization buffer (Table A), mixed and held at room temperature for 10 minutes prior to dilution. An eight point standard curve was generated by diluting the Stock Standard 1:2 for standard curve ranging from 10,000-156.3 pg/mL.
Heme Oxygenase 1 (HO1) Mouse SimpleStep ELISA
50ul of all samples and standards were added to appropriate wells in duplicate. 50ul of 1×Antibody Cocktail was added to each well. The plate was sealed with provided seal and incubated at room temperature on a plate shaker at 400 rpm. After one hour incubation, the Antibody Cocktail was aspirated and the wells were washed three times with 350ul 1×Wash Buffer PT, aspirating completely between each step. After the last wash was aspirated dry, 100ul TMB Substrate was added to each well and the plate was incubated in the dark at room temperature for 10 minutes on a plate shaker at 400 rpm. After the 10 minute incubation, 100ul of Stop Solution was added to each well. Plate was shaken at 400 rpm for 1 minute to mix. Softmax Pro 7.0.3 was used to read OD at 450 nm as well as for analysis.
Heme Oxygenase 1 Protein Levels in Mouse Plasma
All assay reagents were provided in the Heme Oxygenase 1 (HO1) Mouse SimpleStep ELISA Kit (Abcam #ab204524). 1×Wash Buffer PT was prepared by diluting 10×Wash Buffer PT 1:10 with deionized water. Antibody cocktail was prepared by diluting the 10×Capture Antibody and 10×Detector Antibody to 1×in Antibody Diluent 5BI. […]

FTH1 = FTH1 mRNA expression in HepG2 cells (Nanostring); type: cell-based, human; conditions: 24 hours treatment
Description: RNA Isolation and Quantification of Gene Expression
HepG2 cells were seeded at 250 k/well in 12-well tissue culture plates coated with collagen (collagen I, rat tail (thin plate coating); ENZO Life Sciences) for approximately 24 hours. The seeded cells were then treated with dose titration of the compound of Example 17 or dimethyl fumarate (DMF) (a Nrf2 activator; Fisher Scientific) via media change, with biological triplicates performed for each treatment. After approximately 24 hours of treatment, cells were visually inspected to confirm that no toxicity occurred with compound treatment. The treated cells were washed with PBS, aspirated, parafilmed and frozen at −80° C. prior to RNA isolation. RNA was isolated using Machery-Nagel isolation kit (NucleoSpin® RNA: catalog 740955.250) and then quantitated using ThermoFisher Nanodrop.
RNA was diluted for Nanostring gene expression analysis. The diluted RNA at an input of 200ng RNA was run on a Nanostring instrument, which was supported with nCounter® SPRINT Profiler System and nSolver4.0 Software, nCounter® SPRINT Cartridge, nCounter® SPRINT Reagent Pack, and nCounter© SPRINT Hybridization Buffer. Analysis was done manually using raw data obtained from nSolver4.0 Software. CLTC, POLR2A, RPL27 and TBP were used as reference genes for normalization. Data was graphed as fold change compared to DMSO treatment. […]

[2] = PK study, plasma and brain levels in C57BL/6 mice; type: in vivo, mouse; conditions: male C57BL/6 mice, 50 mg/kg oral
Description: 9-10 week old male C57BL/6 mice were dosed orally with 50 mg/kg of the test compound formulated in 5% w/v tween 80 and 0.5% methyl cellulose. At 0.5 and 4 h post dosing, whole blood was collected, animals were sacrificed and brain tissues were collected. The blood samples were immediately placed on ice, and centrifuged within 60 min at 4° C. for 3 min at 14000 rpm to obtain plasma. Plasma was transferred by pipette to pre-labeled Eppendorf tubes, stored at −80° C. until analyzed.
Brain tissue samples were collected and rinsed with fresh ice cold 0.9% NaCl solution, dried quickly and thereafter frozen on dry ice/liquid nitrogen and stored at −70±10° C. until analyzed. Homogenization was done using phosphate buffer saline and used for analysis. Bioanalysis was performed using LC-MS/MS (API 4000).

[3] = PD study, liver compound concentration in mice; type: in vivo; conditions: mouse liver, 50 mpk oral

SMILES	Maximum Fold induction [1]	EC50 [1] [nM]	solubility at 16 h (Kinetic solubility) [µM]	Liver Protein (3 h) (Heme Oxygenase 1 (HO1)) [x]	Liver Protein (6 h) (Heme Oxygenase 1 (HO1)) [x]	Plasma Protein (3 h) (Heme Oxygenase 1 (HO1)) [x]	Plasma Protein (6 h) (Heme Oxygenase 1 (HO1)) [x]	other results
COCCNC(=O)c1ccc2c(c1)nc(Nc1nc3c(s1)CCC3)n2C [Example 8, 2-((5,6-dihydro-4H-cyclopenta[d]thiazol-2-yl)amino)-N-(2-methoxyethyl)-1-methyl-1H-benzo[d]imidazole-5-carboxamide]	5-8	2500	6.9 (≈ 2.56 µg/mL)	–	–	–	–	–
Cn1c(Nc2nc3cc(OC(F)(F)F)ccc3[nH]2)nc2cc(C(=O)O)ccc21 [Example 13, 1-methyl-2-((5-(trifluoromethoxy)-1H-benzo[d]imidazol-2-yl)amino)-1H-benzo[d]imidazole-5-carboxylic acid]	6-27	–	–	1.8	1.2	1.1	0.8	–
Cn1c(Nc2nc3ccc(OC(F)(F)F)cc3s2)nc2cc(C(=O)NCCOCCO)ccc21 [Comparator 1, 1-methyl-2-(6-trifluoromethoxy-benzothiazol-2-ylamino)-1H-benzoimidazole-5-carboxylic acid [2-(2-hydroxyethoxy)-ethyl]-amide, reference compound]	–	–	–	1.6	3.2	1.1	1.3	–
COC(=O)/C=C/C(=O)OC [DMF, dimethyl fumarate, reference compound]	–	–	–	–	–	–	–	FTH1 expression fold increase (FTH1): comparable fold increases
CC1CCc2nc(Nc3nc4cc(C(=O)NCCOCCO)ccc4n3C)sc2C1 (centres unmarked) [Example 7, N-(2-(2-hydroxyethoxy)ethyl)-1-methyl-2-((6-methyl-4,5,6,7-tetrahydrobenzo[d]thiazol-2-yl)amino)-1H-benzo[d]imidazole-5-carboxamide]	27	2700	7.2 (≈ 3.09 µg/mL)	–	–	–	–	–
COCCNC(=O)c1ccc2c(c1)nc(Nc1nc3ccc(OCCOC)cc3o1)n2C [Example 56, 2-((6-(2-methoxyethoxy)benzo[d]oxazol-2-yl)amino)-N-(2-methoxyethyl)-1-methyl-1H-benzo[d]imidazole-5-carboxamide]	21-38	–	–	–	–	–	–	brain penetration [2]: good brain penetration
Cn1c(Nc2nc3c(s2)CC(C)(C)CC3)nc2cc(C(=O)NCCOCCO)ccc21 [Example 6, 2-((6,6-dimethyl-4,5,6,7-tetrahydrobenzo[d]thiazol-2-yl)amino)-N-(2-(2-hydroxyethoxy)ethyl)-1-methyl-1H-benzo[d]imidazole-5-carboxamide]	41	3000	8.1 (≈ 3.59 µg/mL)	–	–	–	–	–
Cn1c(Nc2nc3ccccc3o2)nc2cc(C(=O)NCCNC3=NCCN3)ccc21 [Example 22, 2-(benzo[d]oxazol-2-ylamino)-N-(2-((4,5-dihydro-1H-imidazol-2-yl)amino)ethyl)-1-methyl-1H-benzo[d]imidazole-5-carboxamide]	18	–	3.5 (≈ 1.46 µg/mL)	–	–	–	–	–
Cn1c(Nc2nc3ccc(OC(F)(F)F)cc3o2)nc2cc(C(=O)O)ccc21 [Example 44, 1-methyl-2-((6-(trifluoromethoxy)benzo[d]oxazol-2-yl)amino)-1H-benzo[d]imidazole-5-carboxylic acid]	9-14	–	–	1.6	2.1	1.0	1.1	Liver Conc uM (3 h) ([3]; 3 h): 217 µM; Liver Conc uM (6 h) ([3]; 6 h): 162 µM
Cl.Cn1c(Nc2nc3c(s2)CNCC3)nc2cc(C(=O)NCCOCCO)ccc21 [Example 9, N-(2-(2-hydroxyethoxy)ethyl)-1-methyl-2-((4,5,6,7-tetrahydrothiazolo[5,4-c]pyridin-2-yl)amino)-1H-benzo[d]imidazole-5-carboxamide hydrochloride]	2	–	2.8	–	–	–	–	–
